Columns and labels:
HCV RNA replication = test: Subgenomic HCV replicon assay (influence on replication); format: cell-based, Hepatitis C virus; details: subgenomic HCV replicon system, at non-toxic concentrations, FIG. 2
Procedure: Haprolid has been identified as a potent inhibitor of HCV. Experiments confirmed its antiviral activity at nanomolar concentrations (EC50<6 nM) with toxicity in low micromolar ranges (TC50˜0.1 μM) (FIG. 1). […] Employing HCVTCP, influences on HCV RNA replication and virus entry are quantified.

HCV = test: microbe, parasite or virus in culture; format: cell-based; details: Hepatitis C virus, read-out: antiviral activity EC50
HCVTCP = test: Preincubation experiment in the context of HCV TCP infection; format: cell-based, Hepatitis C virus; details: HCVTCP system, FIG. 3
[1] = tested on: lipoprotein secretion (ApoB/E), albumin; test: Secretion of lipoproteins (ApoB/E) or albumin; format: cell-based; details: FIG. 6
Text: (§1) Moreover, an influence of the compound on the steps leading to assembly and release of infectious HCV particles has been shown. Total production of infectious virus particles was reduced about 3-fold (FIG. 5c). […] However, this was not caused by an influence of the drug on lipoprotein secretion (ApoB/E, FIG. 6), on which HCV secretion strongly depends, nor a general influence on the secretory capacity of the cell as shown for albumin (FIG. 6).

[2] = tested on: Huh7-Lunet-hCD81-Gluc cells; test: Cell viability by G-Luc activity in the whole life cycle assay; details: FIG. 1
[3] = tested on: retroviral particles pseudotyped with the glycoproteins of either HCV, VSV or MLV
infectious HCV particles = test: Influence on assembly and/or release of infectious HCV particles; format: cell-based, Hepatitis C virus
Text: as §1
FIGS. 5a-c show the influence on assembly and/or release.

COC(C)CCCC1CC/C(C)=C\CC(=O)NC(Cc2ccccc2)C(=O)N(C)CC(=O)N(C)C(CC(C)C)C(=O)N2CCCC2C(=O)O1 (stereo not drawn) [Haprolid]
reduction of HCV RNA replication (HCV RNA replication): 5 fold
EC50 (HCV): < 6 nM
effect of preincubation of cells or of virus compared with addition of compound during infection (HCVTCP): only preincubation of the cells, but not of the virus resulted in a comparable effect
influence on secretion of albumin [1]: no influence
influence on secretion of lipoproteins (ApoB/E) [1]: no influence
toxicity TC50 [2]: ~100 nM
decrease of infectivity of pseudotyped retroviral particles [3]: 100-1000 fold
reduction of intracellular virus titer (infectious HCV particles; FIG. 5a): 100 fold
reduction of total production of infectious virus particles (infectious HCV particles; FIG. 5c): about 3 fold

From US20140256618A1, “Haprolid and Derivatives Thereof as Inhibitors of HCV” (Twincore Zentrum Fuer Experimentelle und Klinische …, priority 2011, published 2014)
